Data taken from patent US9040525B2, “Cyclic amide derivative” (MOCHIDA PHARMACEUTICAL CO., LTD., priority 2010, dated 2015).

Target: T1, GPR40 of human origin (Homo sapiens, UniProt O14842)
T1 construct: expressed in transfected cells
Assay: Agonist action on GPR40 of human origin (Ca2+ fluorescence, CHO cell strain stably expressing GPR40)
Format: cell-based
Conditions: fluctuation of Ca2+ concentration
Procedure: A CHO cell strain stably expressing GPR40 of human origin was used to determine the agonist action of a title compound. This cell strain was seeded in a clear bottom 96 well plate at 2×10^4 cells/100 μL/well. The cell strain was cultured in a CO2 incubator overnight using a Ham's F-12 medium containing a 10% fetal bovine serum, 100 U/mL penicillin, 0.1 mg/mL streptomycin, and 400 μg/mL. Geneticin. Calcium 4 Assay Kit (Molecular Devices) was used as a fluorescent calcium indicator. One mL of 77 mg/mL probenecid (Invitrogen) was added to 100 mL of a calcium indicator solution to prepare a solution (loading solution) mixed with a 20 mM HEPES-containing Hanks' balanced salt solution (HBSS) in equal proportions. To the cells from which the culture solution was removed, 200 μL of the loading solution was added, and the cells were cultured in a CO2 incubator for 1 hour. The title compound was diluted with a 20 mM HEPES-containing HBSS and was added to the cells by 50 μL, and the fluctuation of the Ca^2+concentration was measured by an intracellular ion analyzer. The EC50 value of the title compound was calculated using the dose-response curve of fluorescence intensity variation.

T1 sequence (O14842 whole entry): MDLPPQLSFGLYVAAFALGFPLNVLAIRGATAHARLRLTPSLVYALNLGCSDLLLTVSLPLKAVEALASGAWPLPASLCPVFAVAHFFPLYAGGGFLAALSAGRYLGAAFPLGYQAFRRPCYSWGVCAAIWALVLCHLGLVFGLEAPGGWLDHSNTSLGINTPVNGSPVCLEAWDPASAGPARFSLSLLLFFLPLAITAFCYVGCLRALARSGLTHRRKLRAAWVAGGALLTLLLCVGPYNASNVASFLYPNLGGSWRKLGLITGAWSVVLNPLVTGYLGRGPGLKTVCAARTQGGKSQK

O=C1CC(c2ccc(O[C@@H]3CCc4c(Br)cccc43)cc2)CS(=O)(=O)N1 (stereo partly drawn) [Example 33, 5-(4-(((R)-4-bromo-2,3-dihydro-1H-inden-1-yl)oxy)phenyl)-1,1-dioxo-1,2-thiazinan-3-one]
EC50: < 300 nM
